# Laboratory results reported in publication PMC9767416, “Discovery of small molecule mechanistic target of rapamycin inhibitors as anti-aging and anti-cancer therapeutics” (Frontiers in Aging Neuroscience, 2022).
# “And” between values parts separate entries of the source, which are not always exact repeats. Equal values may be shown once.
# Assays:
# mTOR kinase = target: T1, mTOR kinase (Homo sapiens, UniProt P42345); experiment: In vitro mTOR kinase enzyme assay (Transcreener ADP2 FI); type: biochemical
# T1 construct: purchased Invitrogen
# Experimental: The mTOR enzyme assay was used to determine the mTOR kinase activity of compound 3. Enzymatic reaction mixture was prepared as follows: mTOR enzyme (10 μg/mL, Invitrogen), ATP (10 μM), p70S6K peptide (10 μg/mL, SignalChem), and kinase buffer (50 mM HEPES, pH 7.5, 1 mM EGTA, 3 mM MnCl2, 10 mM MgCl2, 2 mM DTT, and 0.01% Tween-20). The reaction was performed in black half-area 96-wells at room temperature for 1 h, then stopped by adding ADP detection buffer (Transcreener ADP^2 FI Assay, BellBrook labs) and incubated at room temperature for 1 h. Compound concentration was 10, 20, 40, 80, and 100 μM. The final DMSO concentration was 1%. PHERAstar microplate reader was used for measuring the fluorescence intensity (excitation 575 nm, emission 620 nm).
# [1] = system: mTORC2 substrate AKT (Ser473 phosphorylation); experiment: Immunoblot of phospho-AKT (Ser473), mTORC2 activity in cells; type: cell-based, human; settings: 100 μM; for AKT phosphorylation relative to control cells: after 5 h
# From the text: For immunoblotting, the following primary and secondary antibodies were used: rabbit polyclonal p70 S6 kinase (#9202), rabbit monoclonal phospho-p70 S6 kinase (Thr389) ([…]), rabbit monoclonal AKT kinase (#4691), rabbit monoclonal phospho-AKT kinase (Ser473) ([…]) obtained from Cell Signaling Technology, Inc., Danvers MA, USA; p21waf1 (sc-56335) obtained from Santa Cruz Biotechnology, Inc., Dallas, TX, USA and mouse monoclonal anti-GAPDH (GTX3066) purchased from GeneTex, Inc., Irvine, CA, USA; goat anti-mouse (170-6516) or anti-rabbit IgG (H + L)-HRP conjugate (170-6515) purchased from BioRad, Hercules, CA, USA.
# Cells were harvested 1 and 5 h after treatment. Cells were washed with PBS, harvested into SDS sample lysis buffer (SLB; 2% SDS, 63 mM Tris–HCl, pH 6.8, and 10% glycerol), sonicated, and centrifuged. Protein concentration was determined by BCA assay (Pierce Biotechnology, Rockford, IL, USA); samples were adjusted to equal protein amount (40 μg) with SLB containing dithiothreitol (1% final conc.) and bromophenol blue (0.02% final conc.), and separated by SDS–PAGE in Tris-glycine-SDS buffer (BioRad, 1610772). Proteins were electrotransferred onto a nitrocellulose membrane (0.45 μm NC, Amersham™, GE Healthcare Life Sciences) using wet transfer in Tris-glycine buffer (BioRad, 1810704) with 10% methanol (Sigma, 59304). After blocking with 5% non-fat milk in PBS/Tween-20, proteins were detected using specific antibodies and horseradish peroxidase (HRP)-conjugated secondary antibodies. Peroxidase activity was detected by ECL detection reagents (Thermo Fisher Scientific, Waltham, MA, USA).
# BJ, RPE-1, U87, U373, T98, A172, MDA-MB-231, H1299, and DU-145 cells were exposed to compound 3 (100 μM) for 1 and 5 h and the level of AKT serine 473 (Ser473) phosphorylation was assayed by immunoblotting. […] However, in several cell types (BJ, RPE-1, MDA-MB-231, H1299, and DU-145), the AKT phosphorylation was higher after 5 h of exposure than in control cells (Figure 11).
# [2] = system: IR-induced senescent RPE-1 cells; experiment: Crystal violet and resazurin assays in IR-induced senescent RPE-1; type: cell-based, human
# Experimental: To obtain ionizing radiation (IR)-induced senescent cells, proliferating RPE-1 cells were exposed to a single dose of X-rays (20 Gy) using Pantak HF160 (Gulmay, Surrey, UK) X-ray instrument equipped with Pantak Seifert HF320 generator, MXR-161 X-ray tube (Comet AG, Flamatt, Switzerland), and an aluminum filter using current 1–10 mA. After irradiation, the cells were cultured for an additional 7 days until the development of the senescent phenotype ([Salovska et al., 2022]). To induce docetaxel-induced senescence (DIS), BJ cells were exposed to 5 nM docetaxel for 7 days, as described previously ([Sapega et al., 2018]). To prepare temozolomide (TMZ)-induced senescence, U87 cells were exposed to 100 μM TMZ for 14 days.
# Twenty-four hours before treatment, cells were plated in 96-well plates at densities of 2,850 cells per well for senescent RPE-1 (IR-RPE-1), 3,350 cells per well for proliferating RPE-1 and senescent BJ (DIS-BJ), and 5,000 cells per well for U373, T98, A172, U87, TMZ-U87, and proliferating BJ cells.
# For the crystal violet assay, the cells were washed twice with 150 μL PBS and stained with 30 μL 0.5% (w/v) crystal violet in 20% methanol for 15 mins. Next, the plates were washed five times with ddH2O and left to dry overnight. Crystal violet was solubilized with 75 μL 0.2% Triton X-100 (Sigma) in PBS for 15 mins. The absorbance was read at 595 nm using a microplate reader (Envision, PerkinElmer, Waltham, MA, USA). The absorbance of crystal violet in treated cells was expressed as a percentage of absorbance in untreated cells. Each condition was measured at least in triplicate.
# For the resazurin assay, 200 μL of the culture medium of each well was exchanged for 100 μL of resazurin (stock solution 30 mg/mL; Sigma, St. Louis, MO, USA) diluted 10 times in the culture medium, and the cells were incubated at 37°C for 1–3 h. Reading of fluorescence was done using a microplate reader (PerkinElmer, Waltham, MA, USA). Absolute values of fluorescence were related to the values of untreated cells. Each condition was measured at least in triplicate. […]
structure (smiles),measurement,setting,value
"Nc1ccc(C(=O)Nc2cccc(-c3c[nH]c4ncccc34)c2)cc1O [Compound 3, N-(3-(1H-pyrrolo[2,3-b]pyridin-3-yl)phenyl)-4-amino-3-hydroxybenzamide]",IC50,"mTOR kinase; ATP 10 μM, p70S6K peptide, 1 h",~70 µM and 70 µM
same,inhibition of mTOR kinase activity,mTOR kinase; at 100 μM,complete inhibition
same,concentration from which mTOR kinase activity is inhibited,"mTOR kinase; tested at 10, 20, 40, 80, 100 μM",10 µM
same,effect on Ser473 AKT phosphorylation,"[1]; A172, after 1 h",Transient inhibition
same,effect on Ser473 AKT phosphorylation,"[1]; BJ, after 1 h",Transient inhibition
same,AKT phosphorylation relative to control cells,[1]; BJ,higher
same,effect on Ser473 AKT phosphorylation,"[1]; DU-145, after 1 h",Transient inhibition
same,AKT phosphorylation relative to control cells,[1]; DU-145,higher
same,effect on Ser473 AKT phosphorylation,"[1]; H1299, after 1 h",Transient inhibition
same,AKT phosphorylation relative to control cells,[1]; H1299,higher
same,effect on Ser473 AKT phosphorylation,"[1]; MDA-MB-231, after 1 h",Transient inhibition
same,AKT phosphorylation relative to control cells,[1]; MDA-MB-231,higher
same,effect on Ser473 AKT phosphorylation,"[1]; RPE-1, after 1 h",Transient inhibition
same,AKT phosphorylation relative to control cells,[1]; RPE-1,higher
same,effect on Ser473 AKT phosphorylation,"[1]; T98, after 1 h",Transient inhibition
same,rank of the inhibitory effect on Ser473 AKT phosphorylation among cell lines,"[1]; T98, after 1 h, inhibitory level kept after 5 h",most potent inhibitory effect
same,effect on Ser473 AKT phosphorylation,"[1]; U87, after 1 h",Transient inhibition
same,effect on Ser473 AKT phosphorylation,"[1]; U373, after 1 h",Transient inhibition
same,selectivity for senescent versus proliferating cells,"[2]; IR-RPE-1 vs proliferating RPE-1, crystal violet and resazurin",non-selective manner
same,sensitivity of senescent cells (crystal violet and resazurin),"[2]; IR-induced senescent RPE-1, 0–100 μM, 24 h",significantly sensitive
